# Test results taken from BindingDB's records for doi:10.3109/14756366.2012.753591 (Gyeongsang National University, 2014).
# How the values were obtained:
# [1] = target: Replicase polyprotein 1a (Severe acute respiratory syndrome coronavirus, UniProt P0C6U8); experiment: SARS-CoV PLpro Inhibition Assay; settings: pH 8
# Experimental: (§1) Reactions were performed in a total volume of […], which contained thefollowing components: 20mM Tris-buffer, pH 8.0, 10mM DTT, […], 2% DMSO and varying concentrations of inhibitor ([…]). Assays were initiated with the addition of PLpro to produce a final enzyme concentration of 60 nM.
# [2] = target: Replicase polyprotein 1a/Z-RLRGG-AMC (Severe acute respiratory syndrome coronavirus, UniProt P0C6U8); experiment: SARS-CoV PLpro Inhibition Assay; settings: pH 8
# Experimental: as §1
smiles,measurement,setting,value
"O=c1ccc2ccc3occc3c2o1 [2H-furo[2,3-h]chromen-2-one]",IC50,[1],> 150 µM
COc1cc(O)c(C(=O)/C=C/c2ccc(O)cc2)cc1CC=C(C)C [4'-O-methylbavachalcone (4)],IC50,[1],10.1 µM
same,Ki,[1],4.6 µM
"O=c1ccc2cc3ccoc3cc2o1 [7H-furo[3,2-g]chromen-7-one]",IC50,[1],> 150 µM
COc1cc2c(cc1CC=C(C)C)C(=O)CC(c1ccc(O)cc1)O2 (stereo unspecified) [Bavachinin (1)],IC50,[1],38.4 µM
same,Ki,[1],18.4 µM
CC(C)=CCC/C(C)=C\Cc1cc(-c2coc3cc(O)ccc3c2=O)ccc1O [Corylifol A (6)],IC50,[1],32.3 µM
same,Ki,[1],11.4 µM
CC(C)=CCc1c(O)ccc(C(=O)/C=C/c2ccc(O)cc2)c1O [Isobacachalcone],IC50,[1],7.3 µM
same,Ki,[1],4.9 µM
same,Ki,[2],9.1 µM
CC(C)=CCc1cc(-c2coc3cc(O)ccc3c2=O)ccc1O [Neobavaisoflavone (2)],IC50,[1],18.3 µM
same,Ki,[1],9.4 µM
CC(C)=CCc1cc2c(cc1O)oc(=O)c1c3ccc(O)cc3oc21 [Psoralidin (5)],IC50,[1],4.2 µM
same,Ki,[1],1.7 µM
same,Ki,[2],4.2 µM
